Data reported in ChEMBL document CHEMBL1201862, “PubChem BioAssay data set” (2004).
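Method: 48-hour compound exposure of cells in 96-well plates, five concentrations, linear interpolation of endpoints. GI50 is the concentration that inhibits growth by half.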 Activity calls are given as the source filed them. No stated cut-off is given here; in the data, active = GI50 up to about 1.1 µM and inactive = higher.

Columns and labels:
Test in all cases: inhibition of tumour cell growth, NCI panel, 48 h
MDA-N = tested on: MDA-N
OVCAR-5 = tested on: OVCAR-5
SK-MEL-2 = tested on: SK-MEL-2
RXF 393 = tested on: RXF 393
KM12 = tested on: KM12
HCT-15 = tested on: HCT-15
OVCAR-4 = tested on: OVCAR-4
IGROV-1 = tested on: IGROV-1
NCI-H23 = tested on: NCI-H23
HT-29 = tested on: HT-29
SK-MEL-28 = tested on: SK-MEL-28
SNB-19 = tested on: SNB-19
SW-620 = tested on: SW-620
HCC 2998 = tested on: HCC 2998
SF-268 = tested on: SF-268
HOP-62 = tested on: HOP-62
T47D = tested on: T47D
OVCAR-3 = tested on: OVCAR-3
SNB-75 = tested on: SNB-75
OVCAR-8 = tested on: OVCAR-8

| SMILES | GI50 (MDA-N) | GI50 (OVCAR-5) | GI50 (SK-MEL-2) | GI50 (RXF 393) | GI50 (KM12) | GI50 (HCT-15) | GI50 (OVCAR-4) | GI50 (IGROV-1) | GI50 (NCI-H23) | GI50 (HT-29) | GI50 (SK-MEL-28) | GI50 (SNB-19) | GI50 (SW-620) | GI50 (HCC 2998) | GI50 (SF-268) | GI50 (HOP-62) | GI50 (T47D) | GI50 (OVCAR-3) | GI50 (SNB-75) | GI50 (OVCAR-8) |
| --- | --- | --- | --- | --- | --- | --- | --- | --- | --- | --- | --- | --- | --- | --- | --- | --- | --- | --- | --- | --- |
| CC1(C)OC(=S)N(c2ccccc2)C12C=Cc1cc3ccccc3cc1O2 (stereo not given) | > 100 µM (inactive) | > 100 µM (inactive) | > 100 µM (inactive) | > 100 µM (inactive) | > 100 µM (inactive) | > 100 µM | > 100 µM (inactive) | 6.28 µM (inactive) | > 100 µM (inactive) | > 100 µM (inactive) | > 100 µM (inactive) | > 100 µM (inactive) | > 100 µM (inactive) | > 100 µM (inactive) | > 100 µM (inactive) | > 100 µM (inactive) | > 100 µM (inactive) | > 100 µM (inactive) | > 100 µM (inactive) | > 100 µM (inactive) |
| COc1ccc(/C=C/C(=O)c2cccc(C(=O)/C=C/c3ccc(OC)c(OC)c3)n2)cc1OC | 15.7 µM (inactive) | 29.6 µM (inactive) | > 100 µM (inactive) | 40.4 µM (inactive) | > 55.6 µM (inactive) | 14 µM | > 100 µM (inactive) | 25.9 µM (inactive) | 29.2 µM (inactive) | 7.87 µM (inactive) | 15.8 µM (inactive) | 27 µM (inactive) | 3.53 µM (inactive) | > 100 µM (inactive) | 36.9 µM (inactive) | > 89.7 µM (inactive) | > 49.3 µM (inactive) | > 54.8 µM (inactive) | > 100 µM (inactive) | 3.27 µM (inactive) |
| C/C1=C/C2OC(=O)C3(C)C2C(CC2(C)OC1=CC2=O)OC3(O)C(C)C (stereo not given) | 53.7 µM (inactive) | 34.8 µM (inactive) | 29.4 µM (inactive) | > 37.4 µM (inactive) | 27 µM (inactive) | 20.3 µM | 25.1 µM (inactive) | 35.3 µM (inactive) | 15 µM (inactive) | 28.3 µM (inactive) | 40.5 µM (inactive) | 42.5 µM (inactive) | 23.7 µM (inactive) | 20.9 µM (inactive) | 38.9 µM (inactive) | 41.6 µM (inactive) | 58.2 µM (inactive) | 31.2 µM (inactive) | > 61.1 µM (inactive) | 29 µM (inactive) |
| COC(=O)c1c(C)cccc1/C=C1\Cc2cc(C)cc(C)c2C1=O | > 100 µM (inactive) | > 100 µM (inactive) | 13.2 µM (inactive) | 20.7 µM (inactive) | > 100 µM (inactive) | > 100 µM | 9.75 µM (inactive) | 65.8 µM (inactive) | 51.1 µM (inactive) | 89.5 µM (inactive) | > 100 µM (inactive) | 18.5 µM (inactive) | > 100 µM (inactive) | 82.2 µM (inactive) | 30.8 µM (inactive) | 12 µM (inactive) | 31.7 µM (inactive) | 50.6 µM (inactive) | 12.9 µM (inactive) | 63.8 µM (inactive) |
| O=C(O)CC1NC(/C(=C/c2ccccc2O)NC(=O)c2ccccc2)OC1=O (stereo not given) | 29.4 µM (inactive) | > 100 µM (inactive) | 47.2 µM (inactive) | 29 µM (inactive) | 5.14 µM (inactive) | 30 µM | 7.59 µM (inactive) | 14.3 µM (inactive) | 26.1 µM (inactive) | > 96.6 µM (inactive) | > 100 µM (inactive) | 17.8 µM (inactive) | > 100 µM (inactive) | > 40.4 µM (inactive) | > 23.3 µM (inactive) | 14 µM (inactive) | 11.7 µM (inactive) | > 33.5 µM (inactive) | 7.21 µM (inactive) | 27.3 µM (inactive) |
| CC(C)/C(Cl)=N/OC(=O)Nc1ccc(F)c(Cl)c1 | 3.92 µM (inactive) | 19.2 µM (inactive) | 18.8 µM (inactive) | 12.9 µM (inactive) | 16.6 µM (inactive) | 1.93 µM | 8.49 µM (inactive) | 12.9 µM (inactive) | 14.2 µM (inactive) | 5.69 µM (inactive) | 2.23 µM (inactive) | 22.6 µM (inactive) | 1.92 µM (inactive) | 14.6 µM (inactive) | 19.4 µM (inactive) | 17.6 µM (inactive) | 5.11 µM (inactive) | 3.4 µM (inactive) | 17.8 µM (inactive) | 17.4 µM (inactive) |
| CCCCCCNC(=O)c1cc(CCc2cc(O)ccc2O)ccc1O | 2.66 µM (inactive) | 7.05 µM (inactive) | 2.74 µM (inactive) | 1.8 µM (inactive) | 4.46 µM (inactive) | 2.48 µM | 2.47 µM (inactive) | 2.1 µM (inactive) | 7.89 µM (inactive) | 20.1 µM (inactive) | 2.74 µM (inactive) | 10.7 µM (inactive) | 7.66 µM (inactive) | 3.15 µM (inactive) | 2.77 µM (inactive) | 6.24 µM (inactive) | 1.85 µM (inactive) | 2.3 µM (inactive) | 4.93 µM (inactive) | 3.56 µM (inactive) |
